Laboratory results taken from US20260191965A1 (priority 2022, published 2026).
In brackets after ≈: the same amount, converted by molar mass. Read-outs that look alike come from different tables or passages of the source.

Assays:
[1] = system: clinical isolates of Mycobacterium tuberculosis; experiment: microbe, parasite or virus in culture; type: cell-based; settings: for MIC: Mycobacterium tuberculosis
[2] = system: Mycobacterium tuberculosis H37Rv (ATCC 27294); type: cell-based; settings: for Log reduction in CFU: vs drug-free control
[3] = system: M. tuberculosis Erdman pFCA LuxAB; settings: for reduction compared to the vehicle group: conjugate 100, rifampicin 10, metronidazole 200 mg/kg; for Log reduction compared to untreated group / Log10 CFU counts in the lungs, Average: QD for 12 days; for Log reduction compared to untreated group / Log10 CFU counts in the lungs, Mouse A / Log10 CFU counts in the lungs, Mouse B / Log10 CFU counts in the lungs, Mouse C / Log10 CFU counts in the lungs, Mouse D / Log10 CFU counts in the lungs, Mouse E / Log10 CFU counts in the lungs, Mouse F / Log10 CFU counts in the lungs, Average: conjugate 100, linezolid 100, PA-824 50, rifampicin 10, metronidazole 200 mg/kg; for Log10 CFU counts in the lungs, Mouse A / Log10 CFU counts in the lungs, Mouse B / Log10 CFU counts in the lungs, Mouse C / Log10 CFU counts in the lungs, Mouse D / Log10 CFU counts in the lungs, Mouse E / Log10 CFU counts in the lungs, Mouse F / Log10 CFU counts in the lungs, Average: day 21; for Log10 CFU counts in the lungs, Mouse A / Log10 CFU counts in the lungs, Mouse B / Log10 CFU counts in the lungs, Mouse C / Log10 CFU counts in the lungs, Mouse D / Log10 CFU counts in the lungs, Mouse E / Log10 CFU counts in the lungs, Mouse F: QD for 12 days from day 7; for Log10 CFU counts in the lungs, Average: group average, 6 mice
[4] = 168 h, clinical isolate strain 1, air with 5% CO2, 7H9/10% OADC, 7 days
[5] = 168 h, clinical isolate strain 2, air with 5% CO2, 7H9/10% OADC, 7 days
[6] = 168 h, clinical isolate strain 3, air with 5% CO2, 7H9/10% OADC, 7 days
[7] = 168 h, clinical isolate strain 4, air with 5% CO2, 7H9/10% OADC, 7 days
[8] = 168 h, clinical isolate strain 5, air with 5% CO2, 7H9/10% OADC, 7 days
[9] = 168 h, clinical isolate strain 6, air with 5% CO2, 7H9/10% OADC, 7 days
[10] = 168 h, clinical isolate strain 7, air with 5% CO2, 7H9/10% OADC, 7 days
[11] = 168 h, clinical isolate strain 8, air with 5% CO2, 7H9/10% OADC, 7 days
[12] = 168 h, clinical isolate strain 9, air with 5% CO2, 7H9/10% OADC, 7 days
[13] = 168 h, clinical isolate strain 10, air with 5% CO2, 7H9/10% OADC, 7 days
[14] = 168 h, clinical isolate strain 11 (sensitive strain), air with 5% CO2, 7H9/10% OADC, 7 days
[15] = read-out: MIC values against sensitive tuberculosis strains, sensitive tuberculosis strains, air containing 5% CO2

Structure (SMILES): CO[C@H]1/C=C/O[C@@]2(C)Oc3c(C)c(O)c4c(c3C2=O)C2=NC3(CCN(CCn5c([N+](=O)[O-])cnc5C)CC3)NC2=C(NC(=O)/C(C)=C\C=C\[C@H](C)[C@H](O)[C@@H](C)[C@@H](O)[C@@H](C)[C@H](OC(C)=O)[C@@H]1C)C4=O
- MIC [1, 4]: 2 µg/mL (≈ 2.12 µM)
- MIC [1, 5]: 0.5 µg/mL (≈ 0.53 µM)
- MIC [1, 6]: 2 µg/mL (≈ 2.12 µM)
- MIC [1, 7]: 2 µg/mL (≈ 2.12 µM)
- MIC [1, 8]: 2 µg/mL (≈ 2.12 µM)
- MIC [1, 9]: 1 µg/mL (≈ 1.06 µM)
- MIC [1, 10]: 2 µg/mL (≈ 2.12 µM)
- MIC [1, 11]: 2 µg/mL (≈ 2.12 µM)
- MIC [1, 12]: 0.5 µg/mL (≈ 0.53 µM)
- MIC [1, 13]: 1 µg/mL (≈ 1.06 µM)
- MIC [1, 14]: 0.016 µg/mL (≈ 0.0169 µM)
- MIC [1, 15]: 0.016 µg/mL (≈ 0.0169 µM)
- reduction of bacterial count of wild-type Mycobacterium Tuberculosis compared to the drug-free group ([2]; at both tested concentrations (20 μg/mL and 5 μg/mL)): > 4 Log10 CFU
- CFU/mL ([2]; concentration 5 μg/mL): 9.75E+03 CFU/mL
- Log reduction in CFU ([2]; concentration 5 μg/mL): 4.39
- CFU/mL ([2]; concentration 20 μg/mL): 2.50E+03 CFU/mL
- Log reduction in CFU ([2]; concentration 20 μg/mL): 4.98
- reduction compared to the pre-treatment ([3]; […], 100 mg/kg orally QD, 12 consecutive days): 0.69 log CFU
- reduction compared to the vehicle group ([3]; […], 12 consecutive days): 4 log CFU
- Log reduction compared to untreated group ([3]; […]): 4.18
- activity compared to vehicle, rifampicin, metronidazole, linezolid and PA-824 control groups ([3]; […], one-way ANOVA, 95% level of confidence): significantly superior
- Log10 CFU counts in the lungs, Mouse A [3]: 2.48 Log10 CFU
- Log10 CFU counts in the lungs, Mouse B [3]: 2.18 Log10 CFU
- Log10 CFU counts in the lungs, Mouse C [3]: 3.02 Log10 CFU
- Log10 CFU counts in the lungs, Mouse D [3]: 2.48 Log10 CFU
- Log10 CFU counts in the lungs, Mouse E [3]: 3.80 Log10 CFU
- Log10 CFU counts in the lungs, Mouse F [3]: 2.18 Log10 CFU
- Log10 CFU counts in the lungs, Average [3]: 2.69 Log10 CFU
- drug-related tolerance issues ([3]; mice, after 12 consecutive days of administration, 100 mg/kg QD): no drug-related tolerance issues were observed

Structure (SMILES): NNC(=O)c1ccncc1 [Isoniazid, isoniazid]
- MIC [1, 4]: > 40 µg/mL
- MIC [1, 5]: 2.5 µg/mL (≈ 18.2 µM)
- MIC [1, 6]: 10 µg/mL (≈ 72.9 µM)
- MIC [1, 7]: > 40 µg/mL
- MIC [1, 8]: 5 µg/mL (≈ 36.5 µM)
- MIC [1, 9]: 0.313 µg/mL (≈ 2.28 µM)
- MIC [1, 10]: 5 µg/mL (≈ 36.5 µM)
- MIC [1, 11]: 2.5 µg/mL (≈ 18.2 µM)
- MIC [1, 12]: > 40 µg/mL
- MIC [1, 13]: > 40 µg/mL
- MIC [1, 14]: 0.039 µg/mL (≈ 0.284 µM)
- MIC [1, 15]: 0.039 µg/mL (≈ 0.284 µM)
- CFU/mL ([2]; concentration 10 μg/mL): 3.14E+08 CFU/mL
- Log reduction in CFU ([2]; concentration 10 μg/mL): −0.12

Structure (SMILES): Cc1ncc([N+](=O)[O-])n1CCO [Metronidazole, metronidazole]
- MIC [1, 4]: > 32 µg/mL
- MIC [1, 5]: > 32 µg/mL
- MIC [1, 6]: > 32 µg/mL
- MIC [1, 7]: > 32 µg/mL
- MIC [1, 8]: > 32 µg/mL
- MIC [1, 9]: > 32 µg/mL
- MIC [1, 10]: > 32 µg/mL
- MIC [1, 11]: > 32 µg/mL
- MIC [1, 12]: > 32 µg/mL
- MIC [1, 13]: > 32 µg/mL
- MIC [1, 14]: > 32 µg/mL
- activity against the tested strains ([1]; all tested strains, air containing 5% CO2): no activity
- CFU/mL ([2]; concentration 20 μg/mL): 1.66E+08 CFU/mL
- Log reduction in CFU ([2]; concentration 20 μg/mL): 0.16
- CFU/mL ([2]; concentration 50 μg/mL): 1.02E+08 CFU/mL
- Log reduction in CFU ([2]; concentration 50 μg/mL): 0.37
- reduction compared to the vehicle group ([3]; […], 12 consecutive days): 0.09 log CFU
- Log reduction compared to untreated group ([3]; […]): 0.02
- Log10 CFU counts in the lungs, Mouse A [3]: 6.95 Log10 CFU
- Log10 CFU counts in the lungs, Mouse B [3]: 6.95 Log10 CFU
- Log10 CFU counts in the lungs, Mouse C [3]: 6.15 Log10 CFU
- Log10 CFU counts in the lungs, Mouse D [3]: 6.60 Log10 CFU
- Log10 CFU counts in the lungs, Mouse E [3]: 7.11 Log10 CFU
- Log10 CFU counts in the lungs, Mouse F [3]: 7.31 Log10 CFU
- Log10 CFU counts in the lungs, Average [3]: 6.85 Log10 CFU

Structure (SMILES): O=[N+]([O-])c1cn2c(n1)OC[C@@H](OCc1ccc(OC(F)(F)F)cc1)C2 [PA-824]
- Log reduction compared to untreated group ([3]; […]): 3.04
- Log10 CFU counts in the lungs, Mouse A [3]: 3.29 Log10 CFU
- Log10 CFU counts in the lungs, Mouse B [3]: 4.00 Log10 CFU
- Log10 CFU counts in the lungs, Mouse C [3]: 4.06 Log10 CFU
- Log10 CFU counts in the lungs, Mouse D [3]: 3.65 Log10 CFU
- Log10 CFU counts in the lungs, Mouse E [3]: 4.01 Log10 CFU
- Log10 CFU counts in the lungs, Mouse F [3]: 3.97 Log10 CFU
- Log10 CFU counts in the lungs, Average [3]: 3.83 Log10 CFU

Structure (SMILES): CO[C@H]1/C=C/O[C@@]2(C)Oc3c(C)c(O)c4c(c3C2=O)C2=NC3(CCN(CC(C)C)CC3)NC2=C(NC(=O)/C(C)=C\C=C\[C@H](C)[C@H](O)[C@@H](C)[C@@H](O)[C@@H](C)[C@H](OC(C)=O)[C@@H]1C)C4=O [Rifabutin, rifabutin]
- CFU/mL ([2]; concentration 5 μg/mL): 9.77E+07 CFU/mL
- Log reduction in CFU ([2]; concentration 5 μg/mL): 0.39
- CFU/mL ([2]; concentration 20 μg/mL): 7.19E+06 CFU/mL
- Log reduction in CFU ([2]; concentration 20 μg/mL): 1.52

Structure (SMILES): CO[C@H]1/C=C/O[C@@]2(C)Oc3c(C)c(O)c4c(O)c(c(/C=N/N5CCN(C)CC5)c(O)c4c3C2=O)NC(=O)/C(C)=C\C=C\[C@H](C)[C@H](O)[C@@H](C)[C@@H](O)[C@@H](C)[C@H](OC(C)=O)[C@@H]1C [Rifampicin, rifampicin]
- MIC [1, 4]: > 40 µg/mL
- MIC [1, 5]: 5 µg/mL (≈ 6.08 µM)
- MIC [1, 6]: > 40 µg/mL
- MIC [1, 7]: > 40 µg/mL
- MIC [1, 8]: > 40 µg/mL
- MIC [1, 9]: > 40 µg/mL
- MIC [1, 10]: > 40 µg/mL
- MIC [1, 11]: > 40 µg/mL
- MIC [1, 12]: 20 µg/mL (≈ 24.3 µM)
- MIC [1, 13]: 40 µg/mL (≈ 48.6 µM)
- MIC [1, 14]: 0.039 µg/mL (≈ 0.0474 µM)
- MIC [1, 15]: 0.039 µg/mL (≈ 0.0474 µM)
- CFU/mL ([2]; concentration 5 μg/mL): 2.19E+07 CFU/mL
- Log reduction in CFU ([2]; concentration 5 μg/mL): 1.04
- CFU/mL ([2]; concentration 20 μg/mL): 1.23E+07 CFU/mL
- Log reduction in CFU ([2]; concentration 20 μg/mL): 1.29
- reduction compared to the vehicle group ([3]; […], 12 consecutive days): 0.65 log CFU
- Log reduction compared to untreated group ([3]; […]): 0.58
- Log10 CFU counts in the lungs, Mouse A [3]: 6.29 Log10 CFU
- Log10 CFU counts in the lungs, Mouse B [3]: 6.55 Log10 CFU
- Log10 CFU counts in the lungs, Mouse C [3]: 6.66 Log10 CFU
- Log10 CFU counts in the lungs, Mouse D [3]: 6.24 Log10 CFU
- Log10 CFU counts in the lungs, Mouse E [3]: 5.52 Log10 CFU
- Log10 CFU counts in the lungs, Mouse F [3]: 6.46 Log10 CFU
- Log10 CFU counts in the lungs, Average [3]: 6.29 Log10 CFU

Structure (SMILES): CO[C@H]1/C=C/O[C@@]2(C)Oc3c(C)c(O)c4c(O)c(c(/C=N/N5CCN(C6CCCC6)CC5)c(O)c4c3C2=O)NC(=O)/C(C)=C\C=C\[C@H](C)[C@H](O)[C@@H](C)[C@@H](O)[C@@H](C)[C@H](OC(C)=O)[C@@H]1C [Rifapentine, rifapentine]
- CFU/mL ([2]; concentration 5 μg/mL): 1.80E+07 CFU/mL
- Log reduction in CFU ([2]; concentration 5 μg/mL): 1.12
- CFU/mL ([2]; concentration 20 μg/mL): 1.91E+07 CFU/mL
- Log reduction in CFU ([2]; concentration 20 μg/mL): 1.1

Structure (SMILES): CC(=O)NC[C@H]1CN(c2ccc(N3CCOCC3)c(F)c2)C(=O)O1 [linezolid]
- Log reduction compared to untreated group ([3]; […]): 1.57
- Log10 CFU counts in the lungs, Mouse A [3]: 5.86 Log10 CFU
- Log10 CFU counts in the lungs, Mouse B [3]: 4.61 Log10 CFU
- Log10 CFU counts in the lungs, Mouse C [3]: 5.76 Log10 CFU
- Log10 CFU counts in the lungs, Mouse D [3]: 4.59 Log10 CFU
- Log10 CFU counts in the lungs, Mouse E [3]: 5.13 Log10 CFU
- Log10 CFU counts in the lungs, Average [3]: 5.30 Log10 CFU
